Each molecule was assayed on Leptosphaeria nodorum (LEPTNO) (assay: In vitro fungitoxicity of hydrazones with and without copper towards Leptosphaeria nodorum (Example 26)). Conditions: Parastagonospora nodorum, 72 h, compound 0.05 μg/mL, copper-minus medium, 72 h at 25° C.; read-out: LEPTNO % Inhn. Minus Copper Observed.
Type: cell-based

SMILES | inhibition of growth at 0.05 µg/mL [%]
O=C(N/N=C/c1ccccc1O)c1ccc(Cl)cc1 [Example 2] | 0
O=C(N/N=C/c1c(O)ccc2ccccc12)c1ccccc1 [Example 4] | 4.4
O=C(N/N=C/c1cc(Br)ccc1O)c1ccc2c(c1)OCO2 [Example 7] | 2.6
Cc1ccc(C(=O)N/N=C/c2ccccc2O)cc1 [Example 8] | 0
Cc1ccc([N+](=O)[O-])c(C(=O)N/N=C/c2cc(Cl)cc(Cl)c2O)c1 [Example 9] | 0
C/C(=N\NC(=O)c1ccc(C(F)(F)F)cc1)c1ccccc1O [Example 11] | 0.3
CCOc1ccc(C(=O)N/N=C(\C)c2ccccc2O)cc1 [Example 18] | 0
O=C(N/N=C/c1cc(Br)ccc1O)c1ccccc1Oc1ccccc1 [Example 19] | 2.9
O=C(N/N=C/c1cc(Cl)cc(Cl)c1O)c1ccc(F)cc1 [Example 22] | 16
C/C(=N\NC(=O)c1cccc(F)c1)c1ccccc1O [Example 25] | 0
C/C(=N\NC(=O)c1ccc(C)cc1C)c1ccccc1O [Example 29] | 0
C/C(=N\NC(=O)c1ccc(C)cc1)c1ccccc1O [Example 36] | 5.9
C/C(=N\NC(=O)c1cccc([N+](=O)[O-])c1)c1ccccc1O [Example 37] | 3.3
C/C(=N\NC(=O)c1cccc(C)c1)c1ccccc1O [Example 38] | 2.4
C/C(=N\NC(=O)c1cc(C)cc(C)c1)c1ccccc1O [Example 39] | 1.3
C/C(=N\NC(=O)c1ccc(C(C)C)cc1)c1ccccc1O [Example 40] | 0
CC/C(=N\NC(=O)c1ccccc1Cl)c1ccccc1O [Example 50] | 3.5
C/C(=N\NC(=O)c1ccccc1N)c1ccccc1O [Example 51] | 0
COc1cccc(C(=O)N/N=C(\C)c2ccccc2O)c1 [Example 53] | 0
C/C(=N\NC(=O)c1ccc(Cl)cc1)c1ccccc1O [Example 54] | 0
C/C(=N\NC(=O)c1ccc(C(C)(C)C)cc1)c1ccccc1O [Example 55] | 0
C/C(=N\NC(=O)c1ccc(F)cc1)c1cc(Cl)cc(Cl)c1O [Example 59] | 12.8
C/C(=N\NC(=O)c1ccc(F)cc1)c1ccccc1O [Example 62] | 0
C/C(=N\NC(=O)c1cccc(Br)c1)c1ccccc1O [Example 63] | 0
C/C(=N\NC(=O)c1ccccc1Br)c1ccccc1O [Example 64] | 0
C/C(=N\NC(=O)c1cccc(Cl)c1)c1ccccc1O [Example 65] | 0

Same assay, conditions: compound 0.05 μg/mL, copper-plus medium (CuCl2.2H2O), 72 h at 25° C.

SMILES | LEPTNO % Inhn. Plus Copper Observed [%]
O=C(N/N=C/c1ccccc1O)c1ccc(Cl)cc1 [Example 2] | 95.1
O=C(N/N=C/c1c(O)ccc2ccccc12)c1ccccc1 [Example 4] | 94.5
O=C(N/N=C/c1cc(Br)ccc1O)c1ccc2c(c1)OCO2 [Example 7] | 97.2
Cc1ccc(C(=O)N/N=C/c2ccccc2O)cc1 [Example 8] | 92.6
Cc1ccc([N+](=O)[O-])c(C(=O)N/N=C/c2cc(Cl)cc(Cl)c2O)c1 [Example 9] | 93.6
C/C(=N\NC(=O)c1ccc(C(F)(F)F)cc1)c1ccccc1O [Example 11] | 97.2
CCOc1ccc(C(=O)N/N=C(\C)c2ccccc2O)cc1 [Example 18] | 96.9
O=C(N/N=C/c1cc(Br)ccc1O)c1ccccc1Oc1ccccc1 [Example 19] | 88.8
O=C(N/N=C/c1cc(Cl)cc(Cl)c1O)c1ccc(F)cc1 [Example 22] | 97.6
C/C(=N\NC(=O)c1cccc(F)c1)c1ccccc1O [Example 25] | 97.3
C/C(=N\NC(=O)c1ccc(C)cc1C)c1ccccc1O [Example 29] | 98.0
C/C(=N\NC(=O)c1ccc(C)cc1)c1ccccc1O [Example 36] | 98.4
C/C(=N\NC(=O)c1cccc([N+](=O)[O-])c1)c1ccccc1O [Example 37] | 97.0
C/C(=N\NC(=O)c1cccc(C)c1)c1ccccc1O [Example 38] | 98.3
C/C(=N\NC(=O)c1cc(C)cc(C)c1)c1ccccc1O [Example 39] | 97.9
C/C(=N\NC(=O)c1ccc(C(C)C)cc1)c1ccccc1O [Example 40] | 94.8
CC/C(=N\NC(=O)c1ccccc1Cl)c1ccccc1O [Example 50] | 97.4
C/C(=N\NC(=O)c1ccccc1N)c1ccccc1O [Example 51] | 97.6
COc1cccc(C(=O)N/N=C(\C)c2ccccc2O)c1 [Example 53] | 96.8
C/C(=N\NC(=O)c1ccc(Cl)cc1)c1ccccc1O [Example 54] | 95.7
C/C(=N\NC(=O)c1ccc(C(C)(C)C)cc1)c1ccccc1O [Example 55] | 95.5
C/C(=N\NC(=O)c1ccc(F)cc1)c1cc(Cl)cc(Cl)c1O [Example 59] | 97.5
C/C(=N\NC(=O)c1ccc(F)cc1)c1ccccc1O [Example 62] | 96.3
C/C(=N\NC(=O)c1cccc(Br)c1)c1ccccc1O [Example 63] | 96.7
C/C(=N\NC(=O)c1ccccc1Br)c1ccccc1O [Example 64] | 97.8
C/C(=N\NC(=O)c1cccc(Cl)c1)c1ccccc1O [Example 65] | 98.3

These molecules were tested on Phytophthora infestans (assay: not given). Conditions: hydrazone 50 ppm + 50 μM CuCl2.2H2O, applied 24 h before inoculation, assessed 7 days after inoculation, tomato.
Type: in vivo, Phytophthora infestans on tomato

SMILES | TLB % Control [%]
O=C(N/N=C/c1ccccc1O)c1ccc(Cl)cc1 [Example 2] | 61.4
O=C(N/N=C/c1c(O)ccc2ccccc12)c1ccccc1 [Example 4] | 67.8
O=C(N/N=C/c1cc(Br)ccc1O)c1ccc2c(c1)OCO2 [Example 7] | 54.6
Cc1ccc(C(=O)N/N=C/c2ccccc2O)cc1 [Example 8] | 59.6
Cc1ccc([N+](=O)[O-])c(C(=O)N/N=C/c2cc(Cl)cc(Cl)c2O)c1 [Example 9] | 67.3
C/C(=N\NC(=O)c1ccc(C(F)(F)F)cc1)c1ccccc1O [Example 11] | 42.1
CCOc1ccc(C(=O)N/N=C(\C)c2ccccc2O)cc1 [Example 18] | 38.6
O=C(N/N=C/c1cc(Br)ccc1O)c1ccccc1Oc1ccccc1 [Example 19] | 25.0
O=C(N/N=C/c1cc(Cl)cc(Cl)c1O)c1ccc(F)cc1 [Example 22] | 93.2
C/C(=N\NC(=O)c1cccc(F)c1)c1ccccc1O [Example 25] | 35.1
C/C(=N\NC(=O)c1ccc(C)cc1C)c1ccccc1O [Example 29] | 50.8
C/C(=N\NC(=O)c1ccc(C)cc1)c1ccccc1O [Example 36] | 33.9
C/C(=N\NC(=O)c1cccc([N+](=O)[O-])c1)c1ccccc1O [Example 37] | 33.0
C/C(=N\NC(=O)c1cccc(C)c1)c1ccccc1O [Example 38] | 17.0
C/C(=N\NC(=O)c1cc(C)cc(C)c1)c1ccccc1O [Example 39] | 18.6
C/C(=N\NC(=O)c1ccc(C(C)C)cc1)c1ccccc1O [Example 40] | 64.9
CC/C(=N\NC(=O)c1ccccc1Cl)c1ccccc1O [Example 50] | 43.5
C/C(=N\NC(=O)c1ccccc1N)c1ccccc1O [Example 51] | 4.8
COc1cccc(C(=O)N/N=C(\C)c2ccccc2O)c1 [Example 53] | 62.0
C/C(=N\NC(=O)c1ccc(Cl)cc1)c1ccccc1O [Example 54] | 17.0
C/C(=N\NC(=O)c1ccc(C(C)(C)C)cc1)c1ccccc1O [Example 55] | 43.9
C/C(=N\NC(=O)c1ccc(F)cc1)c1cc(Cl)cc(Cl)c1O [Example 59] | 79.7
C/C(=N\NC(=O)c1ccc(F)cc1)c1ccccc1O [Example 62] | 56.1
C/C(=N\NC(=O)c1cccc(Br)c1)c1ccccc1O [Example 63] | 40.4
C/C(=N\NC(=O)c1ccccc1Br)c1ccccc1O [Example 64] | 43.0
C/C(=N\NC(=O)c1cccc(Cl)c1)c1ccccc1O [Example 65] | 10.0

Source: patent US20120010075A1 (priority 2009, published 2012)
